Converted amounts (≈) assume the structure as drawn.
Experiments:
[1] = test system: P. falciparum K1 strain (Thailand resistant to chloroquine); assay: semiautomated microdilution assay, [3H]-hypoxanthine incorporation, K1 strain; format: cell-based, Plasmodium falciparum; conditions: K1 strain, 72 h incubation
Protocol: (§1) Various OZ compounds were tested by the semiautomated microdilution assay against intraerythrocytic forms of Plasmodium falciparum derived from asynchronous stock cultures.
(§2) Fifty percent inhibitory concentration (IC50) were estimated by Logit regression analysis.

[2] = test system: ANKA strain of P. berghei; assay: single dose STI in vivo screen in infected mice; set-up: species or system Plasmodium berghei; conditions: for Activity (%) po / Activity (%) sc / Activity (%) SSVpo / Activity (%) 3 mg/kg SSV po / Activity (%) 10 mg/kg SSV po: percent reduction in parasitemia day 3 post-infection; for Activity (%) po / Survival (days) po: single 10 mg/kg po in 3% ethanol and 7% Tween 80; for Activity (%) po / Activity (%) sc / Activity (%) SSVpo: mice; for Activity (%) sc / Survival (days) sc: single 10 mg/kg sc in 3% ethanol and 7% Tween 80; for Activity (%) SSVpo: single po dose in standard suspending vehicle (SSV); for Survival (days) po / Survival (days) sc / Survival (days) SSVpo: untreated control 5.6 ± 0.3; for Survival (days) SSVpo: single po dose in SSV; for Activity (%) 10 mg/kg SSV po / Survival (days) 10 mg/kg SSV po: single 10 mg/kg po in SSV
Procedure, shortened: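 Groups of 3-5 Moro SPF or NMRI mice infected with the ANKA strain of P. berghei received a single dose of trioxolane on day one post-infection. The compound was given in 3% ethanol and 7% Tween 80 or in SSV (0.5% w/v CMC, 0.5% v/v benzyl alcohol, 0.4% v/v Tween 80, 0.9% w/v sodium chloride in water). Antimalarial activity was scored as percent reduction in parasitemia on day three and as survival time versus untreated controls. Survival to day 30 counted as cure.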

[3] = test system: P. falciparum NF54 strain (sensitive to standard antimalarials); assay: semiautomated microdilution assay, [3H]-hypoxanthine incorporation, NF54 strain; format: cell-based, Plasmodium falciparum; conditions: NF54 strain, 72 h incubation
Protocol: as §1, §2

Compound | IC50 (ng/ml) K1 [1] | Activity (%) po [2] | Activity (%) sc [2] | Activity (%) SSVpo [2] | Survival (days) po [2] | Survival (days) sc [2] | Survival (days) SSVpo [2] | IC50 (ng/ml) NF54 [3] | Activity (%) 3 mg/kg SSV po ([2]; single 3 mg/kg po in SSV) | Activity (%) 10 mg/kg SSV po [2] | Survival (days) 10 mg/kg SSV po [2] | Survival (days) 3 mg/kg SSV po ([2]; single 3 mg/kg po in SSV)
CN(C)C(=O)N[C@H]1CC[C@]2(CC1)OOC1(O2)C2CC3CC(C2)CC1C3 (stereo partly drawn) [OZ187] | 4.0 ng/mL (≈ 11.4 nM) | 77% | 77% | 94% | 7.7 days | 7.0 days | 10.0 days | 6.8 ng/mL (≈ 19.4 nM) |  |  |  | 
NC1(C(=O)NC[C@H]2CC[C@]3(CC2)OO[C@]2(O3)C3CC4CC(C3)CC2C4)CCCC1 [OZ317] | 0.33 ng/mL (≈ 0.816 nM) |  |  |  |  |  |  | 0.36 ng/mL (≈ 0.89 nM) | 99.20% | 99.92% | 9.8 days | 
c1ccc(CC2(Cc3ccccc3)OOC3(O2)C2CC4CC(C2)CC3C4)cc1 (stereo not drawn) [OZ52] | 3.1 ng/mL (≈ 8.23 nM) | 88% | 99.7% |  | 6.7 days | 8.0 days |  | 3.0 ng/mL (≈ 7.97 nM) |  |  |  | 
OC1(Cc2ccccn2)CCC2(CC1)OOC1(O2)C2CC3CC(C2)CC1C3 (stereo not drawn) [OZ275] | 0.66 ng/mL (≈ 1.78 nM) |  |  |  |  |  |  | 0.74 ng/mL (≈ 1.99 nM) |  | 68/ND % | 7.3/ND days | 
NC[C@H]1CC[C@@]2(CC1)OOC1(O2)C2CC3CC(C2)CC1C3 (stereo partly drawn) [OZ269] | 0.32 ng/mL (≈ 1.09 nM) | 98% | 99.92% | 86% | 10.7 days | 9.0 days | 11.3 days | 0.61 ng/mL (≈ 2.08 nM) |  |  |  | 
O=C(OC1CCC2(CC1)OOC1(O2)C2CC3CC(C2)CC1C3)n1ccnc1 (stereo not drawn) [OZ147] | 1.1 ng/mL (≈ 2.94 nM) | 85% | 99.89% | 71% | 8.0 days | 19.7 days | 8.0 days | 1.8 ng/mL (≈ 4.81 nM) |  |  |  | 
CC(=O)OCC(=O)N1CCC2(CC1)OOC1(O2)C2CC3CC(C2)CC1C3 (stereo not drawn) [OZ82] | 0.48 ng/mL (≈ 1.31 nM) | 91% | 79% |  | 7.3 days | 7.0 days |  | 1.2 ng/mL (≈ 3.28 nM) |  |  |  | 
COC(=O)c1ncnn1C[C@H]1CC[C@]2(CC1)OOC1(O2)C2CC3CC(C2)CC1C3 (stereo partly drawn) [OZ233] | 1.7 ng/mL (≈ 4.21 nM) | 69% | 99.66% | 76% | 7.0 days | 8.3 days | 7.7 days | 1.9 ng/mL (≈ 4.71 nM) |  |  |  | 
CCOC(=O)CCC[C@H]1CC[C@]2(CC1)OOC1(O2)C2CC3CC(C2)CC1C3 (stereo partly drawn) [OZ260] | 5.6 ng/mL (≈ 14.8 nM) | 72% | 81% | 51% | 6.7 days | 7.7 days | 7.0 days | 4.3 ng/mL (≈ 11.4 nM) |  |  |  | 
O=C(C[C@H]1CC[C@]2(CC1)OOC1(O2)C2CC3CC(C2)CC1C3)Nc1nccs1 (stereo partly drawn) [OZ217] | 2.0/2.0 ng/ml | 67% | 98% | 8% | 7.0 days | 8.0 days | 6.0 days | 2.0/2.0 ng/ml |  |  |  | 
N=C(N)NN=C1CCC2(CC1)OOC1(O2)C2CC3CC(C2)CC1C3 (stereo not drawn) [OZ172] | 3.5 ng/mL (≈ 10.5 nM) | 68% | 100% | 82% | 8.0 days | 10.3 days | 10.3 days | 5.0 ng/mL (≈ 15 nM) |  |  |  | 
O=C1c2ccccc2C(=O)N1N=C1CCC2(CC1)OOC1(O2)C2CC3CC(C2)CC1C3 (stereo not drawn) [OZ38] | 0.86 ng/mL (≈ 2.04 nM) | 83% | 99.98% | 15% | 6.7 days | 25.3 days | 5.0 days | 1.3 ng/mL (≈ 3.08 nM) |  |  |  | 
c1c[nH]c([C@H]2CC[C@]3(CC2)OOC2(O3)C3CC4CC(C3)CC2C4)n1 (stereo partly drawn) [OZ251] | 0.60 ng/mL (≈ 1.82 nM) | 29% | 99.87% | 6% | 6.7 days | 9.0 days | 6.0 days | 0.35 ng/mL (≈ 1.06 nM) |  |  |  | 
O=C(OC[C@H]1CC[C@]2(CC1)OOC1(O2)C2CC3CC(C2)CC1C3)n1ccnc1 (stereo partly drawn) [OZ141] | 1.7 ng/mL (≈ 4.38 nM) | 98% | 99.89% | 97% | 8.0 days | 8.7 days | 8.0 days | 1.9 ng/mL (≈ 4.89 nM) |  |  |  | 
CC1(C)CC(NC2CCC3(CC2)OOC2(O3)C3CC4CC(C3)CC2C4)CC(C)(C)N1 (stereo not drawn) [OZ171] | 1.3 ng/mL (≈ 3.11 nM) | 98% | 99.94% | 85% | 9.0 days | 9.7 days | 7.0 days | 1.4 ng/mL (≈ 3.34 nM) |  |  |  | 
N#Cc1ccc(C2(c3ccccc3)OOC3(O2)C2CC4CC(C2)CC3C4)cc1 (stereo not drawn) [OZ124] | 2.1 ng/mL (≈ 5.62 nM) | 72% | 86% | 17% | 6.3 days | 7.0 days | 5.3 days | 1.7 ng/mL (≈ 4.55 nM) |  |  |  | 
O=C(C[C@H]1CC[C@]2(CC1)OO[C@]1(O2)C2CC3CC(C2)CC1C3)NCCN1CCOCC1 [OZ313] | 0.55 ng/mL (≈ 1.27 nM) |  |  |  |  |  |  | 0.76 ng/mL (≈ 1.75 nM) | 58% | 98.9% |  | 
CC(C)(CO)NC(=O)[C@H]1CC[C@]2(CC1)OOC1(O2)C2CC3CC(C2)CC1C3 (stereo partly drawn) [OZ129] | 10/>10 ng/ml | 0% | 0% | 4% | 5.3 days | 5.7 days | 5.7 days | 10/>10 ng/ml |  |  |  | 
NCC1(c2ccccc2)CCC2(CC1)OOC1(O2)C2CC3CC(C2)CC1C3 (stereo not drawn) [OZ117] | 2.1 ng/mL (≈ 5.68 nM) | 95% | 99.94% | 96% | 7.0 days | 8.7 days | 7.7 days | 1.2 ng/mL (≈ 3.25 nM) |  |  |  | 
c1ccc2c(c1)-c1ccccc1C21OOC2(O1)C1CC3CC(C1)CC2C3 (stereo not drawn) [OZ94] | 57 ng/mL (≈ 165 nM) | 21% | 11% | 0% | 6.0 days | 5.3 days | 5.7 days | 28 ng/mL (≈ 80.8 nM) |  |  |  | 
CN1CCN(C(=O)NC[C@H]2CC[C@]3(CC2)OOC2(O3)C3CC4CC(C3)CC2C4)CC1 (stereo partly drawn) [OZ267] | 0.20 ng/mL (≈ 0.477 nM) | 99.92% | 99.97% | 99.89% | 8.3 days | 9.3 days | 8.7 days | 0.34 ng/mL (≈ 0.81 nM) |  |  |  | 
Fc1ccc(C2CCC3(CC2)OOC2(O3)C3CC4CC(C3)CC2C4)cc1 (stereo not drawn) [OZ41] | 3.5 ng/mL (≈ 9.76 nM) | 99.98% | 99.5% | 81% | 12.1 days | 10.7 days | 6.8 days | 4.6 ng/mL (≈ 12.8 nM) |  |  |  | 
O=C(O)COCC(=O)N1CCC2(CC1)OOC1(O2)C2CC3CC(C2)CC1C3 (stereo not drawn) [OZ112] | >10/>10 ng/ml | 6% | 36% | 0% | 5.7 days | 6.3 days | 5.7 days | >10/>10 ng/ml |  |  |  | 
NC(=O)CCNC[C@H]1CC[C@]2(CC1)OO[C@]1(O2)C2CC3CC(C2)CC1C3 [OZ319] | 0.41 ng/mL (≈ 1.12 nM) |  |  |  |  |  |  | 0.91 ng/mL (≈ 2.5 nM) | 99.14% | 99.92% | 10.6 days | 10.8 days
CC(=O)OC[C@H]1CC[C@]2(CC1)OOC1(O2)C2CC3CC(C2)CC1C3 (stereo partly drawn) [OZ118] | 1.0 ng/mL (≈ 2.97 nM) | 99.0% | 99.57% | 98% | 7.0 days | 8.3 days | 8.0 days | 0.24 ng/mL (≈ 0.713 nM) |  |  |  | 
